For this experiment, the system named is blood pressure, myocardial contractile force and vascular resistance. In words: Administration of a cardiovascular agonist/blocker; indexes on myocardial contractile force and vascular resistance and changes in S1a and S2a observed. Conditions: for change in S1a and S2a when the drug is administered (in words): summary of Tables 2 to 4. Type of experiment: in vivo. On the procedure: As cases of administering a cardiovascular agonist, Table 2 illustrates an experimental example in which various indexes on myocardial contractile force and vascular resistance and changes in S1a and S2a were observed when ephedrine of 10 mg as alpha and beta agonist was administered, Table 3 illustrates an experimental example in which various indexes on myocardial contractile force and vascular resistance and changes in S1a and S2a were observed when esmolol of 25 mg as beta-blocker was administered, and Table 4 illustrates an experimental example in which various indexes on myocardial contractile force and vascular resistance and changes in S1a and S2a were observed when phenylephrine of 100 mcg as the alpha agonist was administered. In order to determine the cause of the change in blood pressure, the above-described agents causing the change in blood pressure were administered and the response after the administration was examined.

Regarding `CN[C@@H](C)[C@H](O)c1ccccc1` [ephedrine], the “change in S1a and S2a when the drug is administered (in words)” value (“change in S1a and S2a” below) was “S1a and S2a increase together”. The molecule also displayed an S12_R (after administration of ephedrine 10 mg, before administration 1.79 ± 0.83, P 0.209) of 2.06 ± 0.84. Moreover, the “S′” value (after administration of ephedrine 10 mg, before administration 9.7 ± 2.1, P 0.014) is reported as 11.3 ± 2.7. The S2a (after administration of ephedrine 10 mg, before administration 17.7 ± 8.1, P 0.004) was found to be 22.6 ± 9.2 au. The molecule further gave an S1a (after administration of ephedrine 10 mg, before administration 27.6 ± 12.6, P 0.012) of 43.7 ± 24.9 au. In addition, under “after administration of ephedrine 10 mg, before administration 109.6 ± 13.2, P <0.001”, the SBP was found to be 139.3 ± 14.0 mmHg. In addition, the RRI (after administration of ephedrine 10 mg, before administration 652 ± 70, P 0.029) is on record as 625 ± 90 ms. The molecule also gave an SVR (after administration of ephedrine 10 mg, before administration 719.4 ± 199.2, P 0.011) of 892.6 ± 250.2 dyne · sec/cm^5. Where the note is “after administration of ephedrine 10 mg, before administration 725.2 ± 73.8, P 0.001”, this molecule showed a dp/dt of 1065.5 ± 217.6 mmHg/s.
On to `COC(=O)CCc1ccc(OCC(O)CNC(C)C)cc1` (centres unmarked) [esmolol], for which the “change in S1a and S2a” value is given as “only S1a is significantly decreased”. The molecule further came in with an S12_R (after administration of esmolol 25 mg, before administration 2.6 ± 0.91, P 0.001) of 1.4 ± 0.38. Also, the “S′” value (after administration of esmolol 25 mg, before administration 13.7 ± 4.4, P 0.011) worked out at 10.2 ± 2.1. For the setting “after administration of esmolol 25 mg, before administration 19.6 ± 5.5, P 0.162”, this molecule returned an S2a of 21.1 ± 5.4 au. The S1a (after administration of esmolol 25 mg, before administration 49.3 ± 20.3, P 0.001) was found to be 27.5 ± 9.3 au. For the same molecule, the SBP (after administration of esmolol 25 mg, before administration 136.1 ± 16.8, P <0.001) is listed as 124.4 ± 13.2 mmHg. In addition, the RRI (after administration of esmolol 25 mg, before administration 598 ± 96, P <0.001) is recorded as 700 ± 95 ms. Under “after administration of esmolol 25 mg, before administration 776.4 ± 256.1, P 0.062”, this molecule came in with an SVR of 750.8 ± 251.0 dyne · sec/cm^5. This molecule also yielded a dp/dt (after administration of esmolol 25 mg, before administration 1051.5 ± 233.4, P <0.001) of 804.3 ± 151.1 mmHg/s.
For the molecule `CNC[C@H](O)c1cccc(O)c1` [phenylephrine], the “change in S1a and S2a” value was “any significant change does not occur in S1a unlike S2a”. The molecule further came in with an S12_R (after administration of phenylephrine 100 mcg, before administration 2.86 ± 1.73, P 0.531) of 4.18 ± 6.7. Moreover, the S2a (after administration of phenylephrine 100 mcg, before administration 14.29 ± 7.53, P 0.016) was found to be 18.89 ± 8.14 au. Under “after administration of phenylephrine 100 mcg, before administration 33.6 ± 20.8, P 0.428”, the S1a came to 31.4 ± 15.5 au. The molecule further showed an SBP (after administration of phenylephrine 100 mcg, before administration 93.7 ± 13.2, P 0.014) of 111.5 ± 13.8 mmHg. Under “after administration of phenylephrine 100 mcg, before administration 452.7 ± 110.0, P 0.007”, this molecule gave an SVR of 524.0 ± 132.2 dyne · sec/cm^5. This molecule also showed an RRI (after administration of phenylephrine 100 mcg, before administration 575 ± 141, P 0.384) of 528 ± 197 ms. Where the note is “after administration of phenylephrine 100 mcg, before administration 585.1 ± 106.1, P <0.001”, the dp/dt came out at 744.8 ± 95.3 mmHg/s.

The values are drawn from patent US11426084B2, “Method, apparatus and computer program for noninvasively determining cause of blood pressure change” (THE ASAN FOUNDATION, priority 2017, dated 2022).
